Reference: ChEMBL document CHEMBL5365529, “Construction and Evaluation of Novel Dual-function Antifungal Inhibitors and Covalent Organic Framework Carriers Based on the Infection Microenvironment” (J Med Chem, 2023)
In brackets after ≈: the same amount, converted by molar mass. Activity calls are given as the source filed them. No cut-off for these calls is given here.

Assays:
[1] = Toxicity in BALB/c mouse infected with Candida albicans 901 assessed as pathological change in kidney at 0.5 ug/g administered 6 times measured after 4 days by H and E staining based analysis; assay type: tissue-based; conditions: in vivo, 96 h, dose 0.5 µg/g, time 4 day
[2] = system: Candida albicans; assay: Induction of morphological changes in Candida albicans SC5314 assessed as change in cell structure measured after 48 hrs by TEM analysis; assay type: functional, organism-based
[3] = system: Candida albicans; assay: Antifungal activity against Candida albicans 901 infected in BALB/c mouse assessed as repair of tissue damage at 0.5 ug/g administered 6 times measured after 4 days by GMS staining based analysis; assay type: functional, organism-based; conditions: dose 0.5 µg/g, time 4.0 day
[4] = system: Candida albicans; assay: Antifungal activity against FLC-resistant Candida albicans 901 assessed as fungal growth inhibition incubated for 72 hrs by CLSI based susceptibility test; assay type: functional
[5] = Toxicity in BALB/c mouse infected with Candida albicans 901 assessed as toxic side effects at 0.5 ug/g administered 6 times measured after 4 days; conditions: in vivo, 96 h, dose 0.5 µg/g, time 4 day
[6] = system: Candida albicans; assay: Antifungal activity against Candida albicans 901 infected in BALB/c mouse assessed as decrease in collagen fiber content at 0.5 ug/g administered 6 times measured after 4 days by GMS staining based analysis; assay type: functional, organism-based; conditions: dose 0.5 µg/g, time 4.0 day
[7] = system: Candida albicans; assay: Induction of morphological changes in Candida albicans SC5314 assessed as disappearance of nuclear domains measured for 96 to 144 hrs by TEM analysis; assay type: functional, organism-based; conditions: time 96-144 hrs
[8] = system: Candida albicans; assay: Antifungal activity against FLC-resistant Candida albicans 904 assessed as fungal growth inhibition incubated for 72 hrs by CLSI based susceptibility test; assay type: functional
[9] = biological target: T1, Lanosterol 14-alpha demethylase (Candida albicans (strain SC5314 / ATCC MYA-2876) (Yeast), UniProt P10613); assay: Inhibition of CYP51 in Candida albicans SC5314 assessed as lanosterol level at 4 ug/ml incubated for 16 hrs by GC-MS analysis relative to control; set-up: scale not given: the % may be the effect or the level left; conditions: at 4 µg/mL
T1 sequence (P10613 whole entry): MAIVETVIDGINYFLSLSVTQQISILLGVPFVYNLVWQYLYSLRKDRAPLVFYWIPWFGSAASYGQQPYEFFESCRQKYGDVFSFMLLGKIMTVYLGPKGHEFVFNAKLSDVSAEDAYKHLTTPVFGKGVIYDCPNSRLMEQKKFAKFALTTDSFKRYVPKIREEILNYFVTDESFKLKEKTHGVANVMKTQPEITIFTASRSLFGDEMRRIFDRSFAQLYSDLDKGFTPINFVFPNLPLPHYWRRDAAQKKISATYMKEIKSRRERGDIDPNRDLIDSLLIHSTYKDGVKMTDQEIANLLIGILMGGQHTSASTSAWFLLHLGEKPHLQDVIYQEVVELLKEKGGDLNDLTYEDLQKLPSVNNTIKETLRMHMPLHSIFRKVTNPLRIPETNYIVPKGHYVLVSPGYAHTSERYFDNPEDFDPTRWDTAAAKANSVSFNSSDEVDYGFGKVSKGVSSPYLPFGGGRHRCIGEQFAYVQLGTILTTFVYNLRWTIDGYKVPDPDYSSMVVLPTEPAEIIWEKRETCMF

[10] = system: Candida albicans; assay: Antifungal activity against Candida albicans 901 infected in BALB/c mouse assessed as restoration of infected tissue morphology at 0.5 ug/g administered 6 times measured after 4 days by H and E staining based analysis; assay type: functional, organism-based; conditions: dose 0.5 µg/g, time 4.0 day
[11] = system: Cryptococcus neoformans; assay: Antifungal activity against Cryptococcus neoformans ZKCC 2209 assessed as fungal growth inhibition incubated for 72 hrs by CLSI based susceptibility test; assay type: functional
[12] = biological target: T1, Lanosterol 14-alpha demethylase; assay: Inhibition of CYP51 in Candida albicans SC5314 using lanosterol as substrate incubated for 60 mins by HPLC analysis
[13] = system: Candida albicans; assay: Antifungal activity against Candida albicans 901 infected in BALB/c mouse assessed as inhibition of fungal proliferation at 0.5 ug/g administered 6 times measured after 4 days by Masson staining based analysis; assay type: functional, organism-based; conditions: dose 0.5 µg/g, time 4.0 day
[14] = system: Aspergillus fumigatus; assay: Antifungal activity against Aspergillus fumigatus KM8001 assessed as fungal growth inhibition incubated for 72 hrs by CLSI based susceptibility test; assay type: functional
[15] = system: Candida albicans; assay: Antifungal activity against FLC-resistant Candida albicans 17# assessed as fungal growth inhibition incubated for 72 hrs by CLSI based susceptibility test; assay type: functional
[16] = Toxicity in BALB/c mouse infected with Candida albicans 901 assessed as plasma AST level at 0.5 ug/g administered 6 times measured after 4 days (reference value: 50.6 +/- 2.3 IU/L); conditions: in vivo, 96 h, dose 0.5 µg/g, time 4 day
[17] = system: Candida albicans; assay: Induction of apoptosis in Candida albicans SC5314 assessed as increase in ROS level at 1 uM/ml incubated for 48 hrs by fluorescence microscopy; assay type: functional, organism-based
[18] = Toxicity in BALB/c mouse infected with Candida albicans 901 assessed as pathological change in liver at 0.5 ug/g administered 6 times measured after 4 days by H and E staining based analysis; assay type: tissue-based; conditions: in vivo, 96 h, dose 0.5 µg/g, time 4 day
[19] = system: Candida albicans; assay: Induction of immunity in BALB/c mouse infected with Candida albicans 901 assessed as decrease in PD-L1 level at 0.5 ug/g administered 6 times measured after 4 days by IHC analysis; assay type: functional, organism-based; conditions: dose 0.5 µg/g, time 4.0 day
[20] = system: Candida albicans; assay: Induction of immunity in BALB/c mouse infected with Candida albicans 901 assessed as increase in CD3 positive level at 0.5 ug/g administered 6 times measured after 4 days by IHC analysis; assay type: functional, organism-based; conditions: dose 0.5 µg/g, time 4.0 day
[21] = system: Candida albicans; assay: Induction of immunity in BALB/c mouse infected with Candida albicans 901 assessed as decrease in PD-L1 level at 0.5 ug/g administered 6 times measured after 4 days by Western blot analysis; assay type: functional, organism-based; conditions: dose 0.5 µg/g, time 4.0 day

SMILES: COC(=O)[C@@H](Cn1cncn1)NCc1cccc(OCc2cccc(-c3ccccc3)c2C)c1
- Activity [1]: Non-Toxic
- Activity [2]: Active
- Activity [3]: Active
- MIC50 [4]: 2 µg/mL (≈ 4.38 µM)
- Activity [5]: Non-Toxic
- Activity [6]: Active
- Activity [7]: Active
- MIC50 [8]: 2 µg/mL (≈ 4.38 µM)
- Activity [9]: 10.47%
- Activity [10]: Active
- MIC50 [11]: 0.5 µg/mL (≈ 1.1 µM)
- IC50 [12]: 170 nM
- inhibition [13]: Active
- MIC50 [14]: 2 µg/mL (≈ 4.38 µM)
- MIC50 [15]: 4 µg/mL (≈ 8.76 µM)
- Activity [16]: 57.4 IU/L
- Activity [17]: Active
- Activity [18]: Non-Toxic
- Activity [19]: Active
- Activity [20]: Active
- Activity [21]: Active
